1 compound from patent US20090136968A1, “Novel in vitro methods for studying receptors recognizing volatile compounds” (Chemcom S. A., priority 2005, published 2009) can be followed below.

This experiment has as its target T1, mOR-I7 (Mus musculus, UniProt Q9QWU6).
T1 construct: expressed in transfected cells; host or cells: HEK 293T
T1 sequence (Q9QWU6 1-327): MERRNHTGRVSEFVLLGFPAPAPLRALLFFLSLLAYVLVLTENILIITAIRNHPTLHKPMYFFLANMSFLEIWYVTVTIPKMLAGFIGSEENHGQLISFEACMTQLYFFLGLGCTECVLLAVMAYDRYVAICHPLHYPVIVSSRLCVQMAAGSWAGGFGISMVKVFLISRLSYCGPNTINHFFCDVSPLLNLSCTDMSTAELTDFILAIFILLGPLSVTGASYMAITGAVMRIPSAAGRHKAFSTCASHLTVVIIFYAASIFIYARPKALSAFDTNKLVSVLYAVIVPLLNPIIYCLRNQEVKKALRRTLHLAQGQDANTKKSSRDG
Nature of the experiment: Single cell calcium imaging (Fura2) on HEK 293T overexpressing mOR-I7, with or without mucus in buffer. The note with it: 500 μM octanal. The class given is cell-based. How it is done:
FIG. 2: Bovine olfactory mucus enhances hORL-424 activation by citronellal. (A and B) Calcium measurement was performed after activation of hORL-424 with citronellal in the presence of different amount of bovine olfactory mucus. 0 to 10 μl of mucus (0 to 10 μg of total protein) have been added to assay buffer. Calcium flux has been followed on FDSS (Hamamatsu Photonics K.K. plate reader, Japan) using Fluo4 as fluorescent dye. Histograms represent fluorescent signal observed in the presence or in the absence of 10 μl of bovine olfactory mucus. (C) Concentration response curve of HEK 293T overexpressing hORL-424 treated with citronellal. Gray boxes represent values obtained in the presence of bovine olfactory mucus. Calcium flux measurements have been performed on FDSS (Hamamatsu Photonics K.K. plate reader, Japan). (D and E) Traces obtained during single cell calcium imaging after addition of 500 μM octanal on HEK 293T overexpressing mOR-I7 in the absence (D) or in the presence of 10 μl of bovine olfactory mucus (E). Fura2 was used as fluorescent dye. Results are expressed as F340/F380 ratiometric measurement.
This bovine olfactory mucus property was also observed on a different OR in other assay format. FIGS. 2 D and E show traces obtained from single cell calcium imaging performed on HEK 293T overexpressing mOR-I7 and activated by octanal. In this assay, Fura2 was used as calcium tracer.

The structures appear in SMILES notation.

Consider `CCCCCCCC=O` [octanal], for which the “mOR-I7 activation (calcium flux)” value is “faint activation” (absence of mucus) and “calcium flux similar to the one observed after addition of ATP” (presence of 10 μl bovine olfactory mucus, ATP positive control).
